The source of these data is article PMC10824666 (Nature Cancer, 2023).

Holding throughout (assay): biochemical
Common to all, as to parameters: Eurofins DiscoverX kinase panel, competitive binding assay at 1 uM, percent of DMSO control
Common to all, as to conditions: competitive binding, percent of DMSO control

In one test the target is HIPK1 (Homo sapiens, UniProt Q86Z02). An outline of the steps:
(§1)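 Competitive binding assay across a 96-kinase panel with KIF18A compounds at 1 µM; values given as percentage of control (POC), single experiment.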

The target of the next test is T1, IGF-1R (Homo sapiens, UniProt P08069).
T1 construct: gene IGF1R
T1 sequence (P08069 whole entry): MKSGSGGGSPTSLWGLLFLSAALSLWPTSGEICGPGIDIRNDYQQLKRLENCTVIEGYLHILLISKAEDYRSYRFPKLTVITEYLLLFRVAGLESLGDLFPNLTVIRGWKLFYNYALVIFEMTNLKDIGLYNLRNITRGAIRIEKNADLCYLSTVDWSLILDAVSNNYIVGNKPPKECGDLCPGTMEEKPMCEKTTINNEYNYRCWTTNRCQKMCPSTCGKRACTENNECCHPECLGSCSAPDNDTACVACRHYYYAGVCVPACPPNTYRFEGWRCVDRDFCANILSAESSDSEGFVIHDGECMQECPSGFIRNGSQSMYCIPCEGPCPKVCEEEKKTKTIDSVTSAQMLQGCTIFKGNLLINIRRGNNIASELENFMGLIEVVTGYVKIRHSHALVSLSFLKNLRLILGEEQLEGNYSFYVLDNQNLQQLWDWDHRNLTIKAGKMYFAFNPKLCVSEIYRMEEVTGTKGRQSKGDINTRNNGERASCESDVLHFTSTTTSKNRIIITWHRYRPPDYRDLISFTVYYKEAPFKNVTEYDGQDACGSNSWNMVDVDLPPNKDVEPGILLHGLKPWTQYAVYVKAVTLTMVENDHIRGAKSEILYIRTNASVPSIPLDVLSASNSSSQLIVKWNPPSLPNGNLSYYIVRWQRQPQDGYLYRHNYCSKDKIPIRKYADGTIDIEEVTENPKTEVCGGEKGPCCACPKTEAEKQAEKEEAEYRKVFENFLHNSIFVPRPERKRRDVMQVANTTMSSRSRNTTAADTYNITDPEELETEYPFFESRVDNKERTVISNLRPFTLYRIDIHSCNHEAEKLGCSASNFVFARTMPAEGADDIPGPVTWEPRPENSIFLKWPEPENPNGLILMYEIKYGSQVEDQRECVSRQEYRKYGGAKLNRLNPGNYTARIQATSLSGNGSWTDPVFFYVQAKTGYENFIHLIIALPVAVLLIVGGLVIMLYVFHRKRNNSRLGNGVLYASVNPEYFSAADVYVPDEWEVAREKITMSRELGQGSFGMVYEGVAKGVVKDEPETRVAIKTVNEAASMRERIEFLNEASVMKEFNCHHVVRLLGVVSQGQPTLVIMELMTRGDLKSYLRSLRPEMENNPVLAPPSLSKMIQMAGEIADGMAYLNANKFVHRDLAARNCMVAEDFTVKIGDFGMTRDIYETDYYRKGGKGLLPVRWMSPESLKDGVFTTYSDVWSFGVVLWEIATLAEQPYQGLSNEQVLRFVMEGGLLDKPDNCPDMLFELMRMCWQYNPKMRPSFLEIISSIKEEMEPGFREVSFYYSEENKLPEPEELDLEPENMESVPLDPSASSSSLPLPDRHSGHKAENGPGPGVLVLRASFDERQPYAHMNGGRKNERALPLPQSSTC
In outline: as §1

Another test has as its target T2, GAK (Homo sapiens, UniProt O14976).
T2 sequence (O14976 1-1311): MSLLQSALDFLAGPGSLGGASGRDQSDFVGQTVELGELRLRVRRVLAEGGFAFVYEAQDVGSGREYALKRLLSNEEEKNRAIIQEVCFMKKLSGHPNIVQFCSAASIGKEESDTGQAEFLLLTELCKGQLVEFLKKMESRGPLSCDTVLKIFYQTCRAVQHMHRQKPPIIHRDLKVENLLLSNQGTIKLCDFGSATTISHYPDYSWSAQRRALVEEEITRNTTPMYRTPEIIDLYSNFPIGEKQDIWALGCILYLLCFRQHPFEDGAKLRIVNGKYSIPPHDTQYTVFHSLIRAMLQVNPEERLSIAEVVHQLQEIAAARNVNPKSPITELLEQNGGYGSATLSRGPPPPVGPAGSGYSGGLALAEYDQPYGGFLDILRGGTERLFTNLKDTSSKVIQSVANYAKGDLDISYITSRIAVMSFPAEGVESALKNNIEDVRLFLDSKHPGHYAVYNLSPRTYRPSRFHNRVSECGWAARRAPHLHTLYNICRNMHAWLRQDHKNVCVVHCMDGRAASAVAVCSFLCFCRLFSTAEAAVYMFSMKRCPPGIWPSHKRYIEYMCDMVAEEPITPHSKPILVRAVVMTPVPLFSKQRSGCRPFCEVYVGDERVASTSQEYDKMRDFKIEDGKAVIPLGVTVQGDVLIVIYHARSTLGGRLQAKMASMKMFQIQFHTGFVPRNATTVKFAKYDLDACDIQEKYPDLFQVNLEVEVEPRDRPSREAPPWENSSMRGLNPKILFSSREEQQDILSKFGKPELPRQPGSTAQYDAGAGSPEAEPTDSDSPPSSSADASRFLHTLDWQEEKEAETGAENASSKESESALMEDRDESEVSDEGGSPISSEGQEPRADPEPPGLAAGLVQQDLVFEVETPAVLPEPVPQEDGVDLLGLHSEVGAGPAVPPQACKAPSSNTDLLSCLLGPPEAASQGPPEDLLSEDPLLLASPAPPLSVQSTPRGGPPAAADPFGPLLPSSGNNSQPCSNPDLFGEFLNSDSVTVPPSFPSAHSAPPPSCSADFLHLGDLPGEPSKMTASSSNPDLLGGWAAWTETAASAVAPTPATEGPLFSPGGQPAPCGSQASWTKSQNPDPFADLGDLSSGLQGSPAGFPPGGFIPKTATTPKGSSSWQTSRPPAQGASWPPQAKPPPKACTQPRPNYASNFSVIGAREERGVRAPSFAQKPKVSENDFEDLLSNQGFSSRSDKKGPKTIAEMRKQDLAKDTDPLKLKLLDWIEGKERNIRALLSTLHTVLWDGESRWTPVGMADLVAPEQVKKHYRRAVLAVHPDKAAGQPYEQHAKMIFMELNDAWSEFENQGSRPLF
In outline:
as §1

In a further test the target is CLK4 (Homo sapiens, UniProt Q9HAZ1). In outline: as §1
CLK4, sequence (Q9HAZ1 whole entry): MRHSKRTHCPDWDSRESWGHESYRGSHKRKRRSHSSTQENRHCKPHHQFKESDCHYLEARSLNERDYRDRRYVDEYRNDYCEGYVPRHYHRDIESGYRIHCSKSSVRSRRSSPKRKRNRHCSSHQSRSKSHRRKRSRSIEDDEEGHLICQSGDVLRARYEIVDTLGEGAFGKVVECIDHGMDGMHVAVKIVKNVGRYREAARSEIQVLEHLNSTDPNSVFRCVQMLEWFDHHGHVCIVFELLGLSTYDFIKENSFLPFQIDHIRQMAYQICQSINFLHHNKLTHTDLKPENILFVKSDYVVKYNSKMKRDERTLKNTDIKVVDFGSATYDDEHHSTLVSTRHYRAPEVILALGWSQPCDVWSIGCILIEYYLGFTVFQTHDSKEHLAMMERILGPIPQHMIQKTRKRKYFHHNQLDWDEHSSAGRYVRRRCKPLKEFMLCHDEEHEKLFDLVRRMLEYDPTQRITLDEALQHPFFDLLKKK
Where [1] appears, read: read-out: Kinome Profiling performed by Eurofins DiscoverX / AM-0277, 1.0 µM / POC.
Where [2] appears, read: read-out: Kinome Profiling performed by Eurofins DiscoverX / AM-1882, 1.0 µM / POC.
Where [3] appears, read: read-out: Kinome Profiling performed by Eurofins DiscoverX / AM-5308, 1.0 µM / POC.

Each structure is given as a SMILES string. Read-outs that look alike come from different tables or passages of the source.

HIPK1, sequence (Q86Z02 whole entry): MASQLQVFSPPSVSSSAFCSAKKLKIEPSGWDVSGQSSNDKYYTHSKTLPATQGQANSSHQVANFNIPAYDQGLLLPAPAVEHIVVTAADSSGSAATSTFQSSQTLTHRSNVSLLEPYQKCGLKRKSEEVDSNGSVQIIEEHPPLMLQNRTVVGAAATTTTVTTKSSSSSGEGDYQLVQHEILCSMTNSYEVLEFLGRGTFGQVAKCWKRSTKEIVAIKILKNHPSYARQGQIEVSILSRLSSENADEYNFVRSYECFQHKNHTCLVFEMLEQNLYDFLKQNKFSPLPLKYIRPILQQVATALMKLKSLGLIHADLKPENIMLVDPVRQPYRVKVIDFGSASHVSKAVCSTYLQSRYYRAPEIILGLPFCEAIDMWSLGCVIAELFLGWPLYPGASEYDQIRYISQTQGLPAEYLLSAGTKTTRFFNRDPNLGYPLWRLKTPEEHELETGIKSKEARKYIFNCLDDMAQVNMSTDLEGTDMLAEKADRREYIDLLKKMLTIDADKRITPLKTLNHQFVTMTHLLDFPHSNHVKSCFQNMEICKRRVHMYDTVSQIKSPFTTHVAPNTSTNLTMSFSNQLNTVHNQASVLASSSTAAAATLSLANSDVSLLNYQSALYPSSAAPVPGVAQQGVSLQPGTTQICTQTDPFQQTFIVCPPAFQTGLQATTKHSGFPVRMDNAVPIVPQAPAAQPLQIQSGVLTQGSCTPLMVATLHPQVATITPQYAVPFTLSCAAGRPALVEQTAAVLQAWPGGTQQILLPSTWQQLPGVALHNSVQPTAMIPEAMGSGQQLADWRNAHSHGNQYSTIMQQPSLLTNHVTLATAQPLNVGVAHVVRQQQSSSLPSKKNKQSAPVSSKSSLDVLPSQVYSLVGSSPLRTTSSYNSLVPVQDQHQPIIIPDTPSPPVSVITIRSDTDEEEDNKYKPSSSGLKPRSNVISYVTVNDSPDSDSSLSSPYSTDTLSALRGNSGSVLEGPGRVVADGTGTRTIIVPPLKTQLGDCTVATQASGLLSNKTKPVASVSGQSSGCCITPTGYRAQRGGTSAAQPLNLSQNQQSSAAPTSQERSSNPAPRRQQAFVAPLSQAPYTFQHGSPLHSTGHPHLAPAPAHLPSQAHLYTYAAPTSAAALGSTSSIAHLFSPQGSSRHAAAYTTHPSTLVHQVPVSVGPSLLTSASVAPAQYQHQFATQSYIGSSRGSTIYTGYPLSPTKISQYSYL

With `CC(C)(CO)Nc1ccc(C(=O)Nc2cccc(S(=O)(=O)C3CCCC3)c2)c(N2CCC3(CC2)CC3)n1` [AM-0277], the remaining activity at 1 µM at HIPK1 (setting [1]) was determined as 61%; on IGF-1R (setting [1]), 97%; on GAK (setting [1]) it was 100%; at CLK4 (setting [1]), 97%.
As to `CC(C)(C)NS(=O)(=O)c1cccc(NC(=O)c2ccc(S(=O)(=O)NC(C)(C)C)cc2N2CCC3(CC2)CC3)c1` [AM-1882], the remaining activity at 1 µM on HIPK1 (setting [2]) worked out at 73%; on IGF-1R (setting [2]), 83%; on GAK (setting [2]), 99.5%; on CLK4 (setting [2]), 100%.
`C[C@@H]1CN(c2cccc(NC(=O)c3ccc(NS(=O)(=O)CCO)cc3N3CCC4(CC3)CC4)n2)CCO1` [AM-5308]: the remaining activity at 1 µM stood at 100% at HIPK1 (setting [3]), 86.5% at IGF-1R (setting [3]), 86% on GAK (setting [3]) and 100% on CLK4 (setting [3]).
